Results taken from patent US20110288086A1, “POLYCYCLIC QUINAZOLINES, PREPARATION THEREOF, AND USE THEREOF” (priority 2010, published 2011).
In brackets after ≈: the same amount, converted by molar mass.

Assays:
[1] = target: T1, aurora kinase B (Homo sapiens, UniProt Q96GD4); assay: Aurora kinase B inhibition in vitro (Invitrogen aurora kinase screening kit PV3174); format: biochemical
T1 construct: purchased Invitrogen PV3174

[2] = system: Jurkat E6-1 human T-cell lymphoma; assay: Tumor cell IC50, CCK-8 kit, Jurkat E6-1; format: cell-based; details: E6-1 cells
[3] = system: Hut78 T-Lymphocytic Leukemia cells; assay: Tumor cell IC50, CCK-8 kit, Hut78; format: cell-based; details: Homo sapiens, Hut-78 cells
[4] = system: Colo320 human rectal cancer cells; assay: Tumor cell IC50, CCK-8 kit, Colo320; format: cell-based; details: COLO 320
[5] = system: K562 human chronicity marrow leukemic cells; assay: Tumor cell IC50, CCK-8 kit, K562; format: cell-based
[6] = system: MDA-MB-435s human breast carcinoma cells; assay: Tumor cell IC50, CCK-8 kit, MDA-MB-435s; format: cell-based; details: 435s cells
[7] = system: Hep3B2. 1-7 human hepatoma carcinoma cells; assay: Tumor cell IC50, CCK-8 kit, Hep3B; format: cell-based
[8] = system: A549 human lung cancer cells; assay: Tumor cell IC50, CCK-8 kit, A549; format: cell-based
[9] = system: PANC-1 human pancreatic cancer cells; assay: Tumor cell IC50, CCK-8 kit, PANC-1; format: cell-based; details: PANC-1 cells
[10] = system: PC-3 human carcinoma of prostate; assay: Tumor cell IC50, CCK-8 kit, PC-3; format: cell-based; details: PC-3 cells
[11] = Acute Toxicity Study; details: in vivo; preliminary screening, Bliss statistical method
Experimental: The acute toxicity experiments were carried out according to the methods disclosed in the book of Modern Pharmacological Methods, edited chiefly by Zhang Jun-Tian.

[12] = system: K562 human chronicity marrow leukemic cells; assay: Tumor cell inhibition ratio, CCK-8 kit, K562; details: K562, read-out: Antiproliferative effect (inhibition ratio) K562
From the text: (§1) The inhibitory activities of the compounds on tumor cells in vitro

[13] = system: A549 human lung cancer cells; assay: Tumor cell inhibition ratio, CCK-8 kit, A549; details: A549, read-out: Antiproliferative effect (inhibition ratio) A549
From the text: as §1

[14] = system: PC-3 human carcinoma of prostate; assay: Tumor cell inhibition ratio, CCK-8 kit, PC-3; details: read-out: Antiproliferative effect (inhibition ratio) PC-3
From the text: as §1

[15] = system: Hut78 T-Lymphocytic Leukemia cells; assay: Tumor cell inhibition ratio, CCK-8 kit, Hut78; details: Homo sapiens, HuT78, read-out: Antiproliferative effect (inhibition ratio) Hut-78
From the text: as §1

[16] = system: Hep3B2.1-7 human hepatoma carcinoma cells; assay: Tumor cell inhibition ratio, CCK-8 kit, Hep3B; details: read-out: Antiproliferative effect (inhibition ratio) Hep3B
From the text: as §1

[17] = system: PANC-1 human pancreatic cancer cells; assay: Tumor cell inhibition ratio, CCK-8 kit, PANC-1; details: PANC-1, read-out: Antiproliferative effect (inhibition ratio) PANC-1
From the text: as §1

[18] = system: Colo320 human rectal cancer cells; assay: Tumor cell inhibition ratio, CCK-8 kit, Colo320; details: COLO 320, read-out: Antiproliferative effect (inhibition ratio) Colo320
From the text: as §1

[19] = system: Jurkat E6-1 human T-cell lymphoma; assay: Tumor cell inhibition ratio, CCK-8 kit, Jurkat E6-1; details: Jurkat E6.1, read-out: Antiproliferative effect (inhibition ratio) E6-1
From the text: as §1

[20] = system: MDA-MB-435s human breast carcinoma cells; assay: Tumor cell inhibition ratio, CCK-8 kit, MDA-MB-435s; details: read-out: Antiproliferative effect (inhibition ratio) 435s
From the text: as §1

[21] = target: EGFR tyrosine kinase (Homo sapiens, UniProt P00533); assay: EGFR tyrosine kinase inhibition in vitro (Invitrogen EGFR inhibitor screening kit PV3193)
Chain of EGFR tyrosine kinase (P00533 25-1210): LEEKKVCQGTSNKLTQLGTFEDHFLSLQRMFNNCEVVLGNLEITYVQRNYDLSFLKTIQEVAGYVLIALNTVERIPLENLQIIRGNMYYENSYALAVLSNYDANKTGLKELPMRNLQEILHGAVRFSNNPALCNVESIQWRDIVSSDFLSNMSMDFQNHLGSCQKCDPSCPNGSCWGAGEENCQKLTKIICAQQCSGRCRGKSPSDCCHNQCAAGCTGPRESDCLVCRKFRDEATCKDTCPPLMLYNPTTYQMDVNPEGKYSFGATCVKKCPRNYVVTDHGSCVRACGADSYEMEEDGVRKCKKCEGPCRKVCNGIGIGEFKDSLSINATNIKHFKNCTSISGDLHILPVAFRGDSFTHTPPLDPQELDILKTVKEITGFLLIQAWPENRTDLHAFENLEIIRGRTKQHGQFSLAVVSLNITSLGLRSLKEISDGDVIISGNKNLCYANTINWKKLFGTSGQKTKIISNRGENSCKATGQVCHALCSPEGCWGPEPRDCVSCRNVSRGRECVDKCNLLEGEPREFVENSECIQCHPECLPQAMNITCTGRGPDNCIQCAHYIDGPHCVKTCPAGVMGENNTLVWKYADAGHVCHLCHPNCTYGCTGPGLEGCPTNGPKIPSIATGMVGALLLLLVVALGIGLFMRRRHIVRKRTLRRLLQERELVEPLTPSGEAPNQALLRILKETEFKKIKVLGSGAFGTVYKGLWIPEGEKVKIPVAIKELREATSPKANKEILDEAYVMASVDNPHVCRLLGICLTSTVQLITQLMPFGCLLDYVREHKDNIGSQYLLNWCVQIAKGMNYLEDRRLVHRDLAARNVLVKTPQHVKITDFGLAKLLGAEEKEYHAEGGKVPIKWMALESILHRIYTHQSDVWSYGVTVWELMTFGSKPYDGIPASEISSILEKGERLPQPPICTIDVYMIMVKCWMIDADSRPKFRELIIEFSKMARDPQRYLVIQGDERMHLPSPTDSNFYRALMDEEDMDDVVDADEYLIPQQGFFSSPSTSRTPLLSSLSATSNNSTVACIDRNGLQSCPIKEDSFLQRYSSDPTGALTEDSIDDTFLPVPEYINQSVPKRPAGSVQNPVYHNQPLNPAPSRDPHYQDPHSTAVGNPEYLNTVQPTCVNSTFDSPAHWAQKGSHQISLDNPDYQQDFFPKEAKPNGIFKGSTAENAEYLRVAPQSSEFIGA
From the text: The inhibitory activities of EGFR tyrosine kinase in vitro
Erlotinib hydrochloride was used as a positive control drug.

T1 sequence (Q96GD4 whole entry): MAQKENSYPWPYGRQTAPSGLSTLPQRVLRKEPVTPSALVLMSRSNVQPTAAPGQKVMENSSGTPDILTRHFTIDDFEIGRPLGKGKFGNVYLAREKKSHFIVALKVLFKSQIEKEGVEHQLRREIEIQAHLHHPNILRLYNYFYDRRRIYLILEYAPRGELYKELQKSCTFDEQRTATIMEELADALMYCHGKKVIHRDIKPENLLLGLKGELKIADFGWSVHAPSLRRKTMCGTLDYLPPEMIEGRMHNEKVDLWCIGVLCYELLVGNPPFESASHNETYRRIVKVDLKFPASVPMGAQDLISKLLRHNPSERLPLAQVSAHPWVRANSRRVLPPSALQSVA

Row | SMILES | The inhibition ratio of the compound on Aurora B(%) ([1]; 40 μM) | The inhibition ratio of the compound on Aurora B(%) ([1]; 200 μM) | IC50 [2] [µg/mL] | IC50 [3] [µg/mL] | IC50 [4] [µg/mL] | IC50 [5] [µg/mL] | IC50 [6] [µg/mL] | IC50 [7] [µg/mL] | IC50 [8] [µg/mL] | IC50 [9] [µg/mL] | IC50 [10] [µg/mL] | LD50 [11] [mg/kg] | inhibition at 10 µM [12] [%] | inhibition at 100 µM [12] [%] | inhibition at 10 µM [13] [%] | inhibition at 100 µM [13] [%] | inhibition at 10 µM [14] [%] | inhibition at 100 µM [14] [%] | inhibition at 10 µM [15] [%] | inhibition at 100 µM [15] [%] | further results
1 | COCCOc1cc2c(cc1OCCOC)C1=Nc3cc(Cl)ccc3C(C)N1C=N2.O=C(O)CC(O)C(=O)O (stereo not shown) [Compound V-22, 11-chloro-8-methyl-2,3-bis(2-methoxyethoxy)-8H-quinazolino[4,3-b]quinazoline malate] | 57.2 | 95.6 | 13.3 | 11.4 | 4.67 | 19.6 | 6.18 | 14.4 | 9.87 | 84.3 | 7.69 | 1340 | 23.1 | 88.8 | 54.6 | 96.2 | 64 | 97 | 54.1 | 94.6 | inhibition at 10 µM [16]: 62.3%; inhibition at 100 µM [16]: 90.7%; inhibition at 10 µM [17]: 60.9%; inhibition at 100 µM [17]: 95.4%; inhibition at 10 µM [18]: 43.8%; inhibition at 100 µM [18]: 99%; inhibition at 10 µM [19]: 67%; inhibition at 100 µM [19]: 98%; inhibition at 10 µM [20]: 63.4%; inhibition at 100 µM [20]: 94.1%; The inhibition ratio of the compound on EGFR(%) ([21]; 40 μM): 63.2%; The inhibition ratio of the compound on EGFR(%) ([21]; 200 μM): 95.6%
2 | COCCOc1cc2c(cc1OCCOC)C1=Nc3cc(Cl)ccc3CN1C=N2 [Compound V-15, 11-chloro-2,3-bis(2-methoxyethoxy)-8H-quinazolino[4,3-b]quinazoline] | 58.7 | 92.5 | 5.72 (≈ 13.8 µM) | 14.3 (≈ 34.5 µM) | 55.6 (≈ 134 µM) | 1.5 (≈ 3.61 µM) | 21 (≈ 50.5 µM) | 6.91 (≈ 16.6 µM) | 1.01 (≈ 2.43 µM) | 8.32 (≈ 20 µM) | 24.6 (≈ 59.2 µM) | 2970 | 45.2 | 91.5 | 75.6 | 90.8 | 42.4 | 81.3 | 61 | 93.2 | inhibition at 10 µM [16]: 52.4%; inhibition at 100 µM [16]: 97.4%; inhibition at 10 µM [17]: 61.8%; inhibition at 100 µM [17]: 94.1%; inhibition at 10 µM [18]: 58.3%; inhibition at 100 µM [18]: 96.5%; inhibition at 10 µM [19]: 69.5%; inhibition at 100 µM [19]: 85.8%; inhibition at 10 µM [20]: 72.6%; inhibition at 100 µM [20]: 92%; The inhibition ratio of the compound on EGFR(%) ([21]; 40 μM): 60.7%; The inhibition ratio of the compound on EGFR(%) ([21]; 200 μM): 94.0%
